Results on 1 compound are retold here after ChEMBL document CHEMBL1139458, “Discovery of small-molecule inhibitors of the ATPase activity of human papillomavirus E1 helicase” (J Med Chem, 2004).

Some results are limits rather than exact numbers.

The test has as its target T1, DNA helicase/primase complex protein (Herpes simplex virus (type 1 / strain 17), UniProt P10236).
T1 sequence (P10236 whole entry): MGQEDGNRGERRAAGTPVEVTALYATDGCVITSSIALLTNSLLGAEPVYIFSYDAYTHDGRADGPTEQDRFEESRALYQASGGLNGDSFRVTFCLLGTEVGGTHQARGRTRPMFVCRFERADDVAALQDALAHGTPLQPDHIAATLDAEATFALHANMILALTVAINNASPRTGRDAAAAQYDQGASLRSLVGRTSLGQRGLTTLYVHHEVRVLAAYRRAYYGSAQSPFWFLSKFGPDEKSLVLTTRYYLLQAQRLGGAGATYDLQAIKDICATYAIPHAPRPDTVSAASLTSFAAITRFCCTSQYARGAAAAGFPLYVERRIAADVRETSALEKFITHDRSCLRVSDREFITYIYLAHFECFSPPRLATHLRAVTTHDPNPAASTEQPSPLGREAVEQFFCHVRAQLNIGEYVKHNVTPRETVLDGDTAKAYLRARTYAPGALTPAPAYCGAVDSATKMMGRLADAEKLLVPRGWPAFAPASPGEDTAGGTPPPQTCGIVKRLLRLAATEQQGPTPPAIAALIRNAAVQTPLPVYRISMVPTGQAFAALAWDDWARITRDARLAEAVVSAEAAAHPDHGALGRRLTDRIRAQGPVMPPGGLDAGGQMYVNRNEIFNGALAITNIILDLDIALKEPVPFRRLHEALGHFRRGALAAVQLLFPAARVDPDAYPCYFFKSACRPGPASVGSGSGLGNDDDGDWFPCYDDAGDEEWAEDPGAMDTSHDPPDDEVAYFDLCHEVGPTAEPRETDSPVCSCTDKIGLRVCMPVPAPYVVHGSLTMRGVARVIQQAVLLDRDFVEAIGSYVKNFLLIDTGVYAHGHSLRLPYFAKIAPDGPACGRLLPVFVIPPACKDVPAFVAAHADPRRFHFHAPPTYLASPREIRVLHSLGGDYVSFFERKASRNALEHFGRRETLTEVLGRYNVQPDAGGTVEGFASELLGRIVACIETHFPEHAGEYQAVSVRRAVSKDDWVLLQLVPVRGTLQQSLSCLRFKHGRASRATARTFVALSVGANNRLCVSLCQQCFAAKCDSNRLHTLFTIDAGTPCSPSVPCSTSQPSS
Put plainly: Inhibitory concentration against herpes simplex virus helicase primase 8 (HSV).

In the case of `O=C(O)CS(=O)(=O)c1ccc(-c2ccccc2)cc1`, the IC50 was > 80 µM.
